The values that follow are results of earlier work, collected in patent US11752185B2, “Powderized cannabis oil” (Hemp Synergistics, priority 2020, dated 2023).

Molecules are shown by their SMILES.

For the data set the following is noted: clinical studies; EPIDIOLEX context: seizures associated with Lennox-Gastaut syndrome or Dravet syndrome.

As for `C=C(C)[C@@H]1CCC(C)=C[C@H]1c1c(O)cc(CCCCC)cc1O` [CBD, cannabidiol], the therapeutic dose was 10 mg/kg/day.
